Measured values as given in PMC12543283, “TastepepAI: An artificial intelligence platform for taste peptide de novo design” (PLOS Computational Biology, 2025).
Ends that are not written are not given here.

Legend:
[1] = test system: human pancreatic ductal epithelial cells (HPNE)
Protocol: (§1) The cytotoxicity of 73 synthetic peptides was evaluated using four human cell lines: human pancreatic ductal epithelial cells (HPNE), human embryonic kidney cells (HEK293T), human umbilical vein endothelial cells (HUVEC), and human bronchial epithelial cells (BEAS-2B). When cell density reached 70% confluence, the complete culture medium was replaced with serum-free maintenance medium, and peptides were added at a final concentration of 100 μM for 36 h. Control groups received only serum-free maintenance medium without peptides. Cell proliferation was assessed using the CCK-8 assay kit (Solarbio, CA1210) according to the manufacturer’s instructions.

[2] = test system: human bronchial epithelial cells (BEAS-2B)
[3] = test system: human embryonic kidney cells (HEK293T)
Protocol: as §1

[4] = Electronic tongue analysis (Taste-Sensing System SA 402B); set-up: unit not given here; settings: reference solution 30 mM KCl + 0.3 mM tartaric acid as baseline, first measurement excluded; for Umami: sensor AAE; for Umami / Bitter / Sweet: detection threshold 0, room temperature; for Umami / Bitter / Sour / Salty: four replicates; for Sour: detection threshold -13, room temperature; for Salty: detection threshold -6, room temperature; for Sweet: measured five times
Summary of the method: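 Samples were tested at 0.1 and 1.0 mg/mL on an SA 402B e-tongue fitted with sourness, saltiness, bitterness, sweetness and umami sensors, with 30 mM KCl/0.3 mM tartaric acid as reference and baseline. Thresholds were −13 for sour, −6 for salty and 0 for the rest. Runs at room temperature: four replicates, five for sweetness, first reading discarded.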

[5] = test system: human umbilical vein endothelial cells (HUVEC)
Protocol: as §1

Substance: SLEYLP [TaPep35]
- Average cell viability, HPNE [1]: 109.88
- Cell viability, HPNE, Data1 [1]: 105.12
- Cell viability, HPNE, Data2 [1]: 118.20
- Cell viability, HPNE, Data3 [1]: 106.32
- Average cell viability, BEAS-2B [2]: 109.54
- Cell viability, BEAS-2B, Data1 [2]: 106.58
- Cell viability, BEAS-2B, Data2 [2]: 102.99
- Cell viability, BEAS-2B, Data3 [2]: 119.04
- Average cell viability, HEK293T [3]: 98.64
- Cell viability, HEK293T, Data1 [3]: 104.29
- Cell viability, HEK293T, Data2 [3]: 94.35
- Cell viability, HEK293T, Data3 [3]: 97.29
- Umami ([4]; peptide 0.1 mg/mL): 1.93
- Umami ([4]; peptide 1 mg/mL): -4.82
- Bitter ([4]; sensor C00, peptide 0.1 mg/mL): 7.64
- Bitter ([4]; sensor C00, peptide 1 mg/mL): 2.77
- Sour ([4]; sensor CA0, peptide 0.1 mg/mL): -3.84
- Sour ([4]; sensor CA0, peptide 1 mg/mL): 12.93
- Salty ([4]; sensor CT0, peptide 0.1 mg/mL): -20.10
- Salty ([4]; sensor CT0, peptide 1 mg/mL): 10.87
- Sweet ([4]; sensor GL1, peptide 0.1 mg/mL): 8.65
- Sweet ([4]; sensor GL1, peptide 1 mg/mL): -7.23
- Average cell viability, HUVEC [5]: 100.35
- Cell viability, HUVEC, Data1 [5]: 100.75
- Cell viability, HUVEC, Data2 [5]: 100.03
- Cell viability, HUVEC, Data3 [5]: 100.27

Substance: SNDPVA [TaPep71]
- Average cell viability, HPNE [1]: 94.64
- Cell viability, HPNE, Data1 [1]: 86.86
- Cell viability, HPNE, Data2 [1]: 82.76
- Cell viability, HPNE, Data3 [1]: 114.31
- Average cell viability, BEAS-2B [2]: 108.14
- Cell viability, BEAS-2B, Data1 [2]: 100.40
- Cell viability, BEAS-2B, Data2 [2]: 109.77
- Cell viability, BEAS-2B, Data3 [2]: 114.26
- Average cell viability, HEK293T [3]: 97.98
- Cell viability, HEK293T, Data1 [3]: 102.11
- Cell viability, HEK293T, Data2 [3]: 95.68
- Cell viability, HEK293T, Data3 [3]: 96.15
- Umami ([4]; peptide 0.1 mg/mL): 1.39
- Umami ([4]; peptide 1 mg/mL): -5.94
- Bitter ([4]; sensor C00, peptide 0.1 mg/mL): 7.30
- Bitter ([4]; sensor C00, peptide 1 mg/mL): 4.11
- Sour ([4]; sensor CA0, peptide 0.1 mg/mL): -2.77
- Sour ([4]; sensor CA0, peptide 1 mg/mL): 14.75
- Salty ([4]; sensor CT0, peptide 0.1 mg/mL): -20.93
- Salty ([4]; sensor CT0, peptide 1 mg/mL): 9.59
- Sweet ([4]; sensor GL1, peptide 0.1 mg/mL): 5.63
- Sweet ([4]; sensor GL1, peptide 1 mg/mL): -5.65
- Average cell viability, HUVEC [5]: 96.51
- Cell viability, HUVEC, Data1 [5]: 91.41
- Cell viability, HUVEC, Data2 [5]: 97.95
- Cell viability, HUVEC, Data3 [5]: 100.19

Substance: STGTIR [TaPep51]
- Average cell viability, HPNE [1]: 102.86
- Cell viability, HPNE, Data1 [1]: 115.31
- Cell viability, HPNE, Data2 [1]: 89.05
- Cell viability, HPNE, Data3 [1]: 104.23
- Average cell viability, BEAS-2B [2]: 98.34
- Cell viability, BEAS-2B, Data1 [2]: 100.20
- Cell viability, BEAS-2B, Data2 [2]: 97.01
- Cell viability, BEAS-2B, Data3 [2]: 97.81
- Average cell viability, HEK293T [3]: 100.60
- Cell viability, HEK293T, Data1 [3]: 100.60
- Cell viability, HEK293T, Data2 [3]: 99.65
- Cell viability, HEK293T, Data3 [3]: 101.55
- Umami ([4]; peptide 0.1 mg/mL): 3.88
- Umami ([4]; peptide 1 mg/mL): -2.27
- Bitter ([4]; sensor C00, peptide 0.1 mg/mL): 9.91
- Bitter ([4]; sensor C00, peptide 1 mg/mL): 7.16
- Sour ([4]; sensor CA0, peptide 0.1 mg/mL): -8.80
- Sour ([4]; sensor CA0, peptide 1 mg/mL): 5.93
- Salty ([4]; sensor CT0, peptide 0.1 mg/mL): -19.53
- Salty ([4]; sensor CT0, peptide 1 mg/mL): 8.48
- Sweet ([4]; sensor GL1, peptide 0.1 mg/mL): 12.64
- Sweet ([4]; sensor GL1, peptide 1 mg/mL): -1.16
- Average cell viability, HUVEC [5]: 103.43
- Cell viability, HUVEC, Data1 [5]: 102.66
- Cell viability, HUVEC, Data2 [5]: 96.59
- Cell viability, HUVEC, Data3 [5]: 111.04

Substance: SVLEFS [TaPep52]
- Average cell viability, HPNE [1]: 109.12
- Cell viability, HPNE, Data1 [1]: 112.31
- Cell viability, HPNE, Data2 [1]: 112.11
- Cell viability, HPNE, Data3 [1]: 102.93
- Average cell viability, BEAS-2B [2]: 105.65
- Cell viability, BEAS-2B, Data1 [2]: 105.38
- Cell viability, BEAS-2B, Data2 [2]: 103.19
- Cell viability, BEAS-2B, Data3 [2]: 108.37
- Average cell viability, HEK293T [3]: 99.31
- Cell viability, HEK293T, Data1 [3]: 102.87
- Cell viability, HEK293T, Data2 [3]: 97.95
- Cell viability, HEK293T, Data3 [3]: 97.10
- Umami ([4]; peptide 0.1 mg/mL): 2.84
- Umami ([4]; peptide 1 mg/mL): -2.08
- Bitter ([4]; sensor C00, peptide 0.1 mg/mL): 7.49
- Bitter ([4]; sensor C00, peptide 1 mg/mL): 4.10
- Sour ([4]; sensor CA0, peptide 0.1 mg/mL): -6.24
- Sour ([4]; sensor CA0, peptide 1 mg/mL): 5.72
- Salty ([4]; sensor CT0, peptide 0.1 mg/mL): -20.56
- Salty ([4]; sensor CT0, peptide 1 mg/mL): 3.13
- Sweet ([4]; sensor GL1, peptide 0.1 mg/mL): 9.54
- Sweet ([4]; sensor GL1, peptide 1 mg/mL): -1.51
- Average cell viability, HUVEC [5]: 102.10
- Cell viability, HUVEC, Data1 [5]: 102.10
- Cell viability, HUVEC, Data2 [5]: 88.93
- Cell viability, HUVEC, Data3 [5]: 115.27

Substance: TAEQVA [TaPep33]
- Average cell viability, HPNE [1]: 106.02
- Cell viability, HPNE, Data1 [1]: 118.30
- Cell viability, HPNE, Data2 [1]: 86.46
- Cell viability, HPNE, Data3 [1]: 113.31
- Average cell viability, BEAS-2B [2]: 98.57
- Cell viability, BEAS-2B, Data1 [2]: 90.33
- Cell viability, BEAS-2B, Data2 [2]: 99.90
- Cell viability, BEAS-2B, Data3 [2]: 105.48
- Average cell viability, HEK293T [3]: 102.24
- Cell viability, HEK293T, Data1 [3]: 97.67
- Cell viability, HEK293T, Data2 [3]: 105.05
- Cell viability, HEK293T, Data3 [3]: 104.01
- Umami ([4]; peptide 0.1 mg/mL): 1.93
- Umami ([4]; peptide 1 mg/mL): -0.93
- Bitter ([4]; sensor C00, peptide 0.1 mg/mL): 7.77
- Bitter ([4]; sensor C00, peptide 1 mg/mL): 3.28
- Sour ([4]; sensor CA0, peptide 0.1 mg/mL): -4.09
- Sour ([4]; sensor CA0, peptide 1 mg/mL): 10.86
- Salty ([4]; sensor CT0, peptide 0.1 mg/mL): -19.69
- Salty ([4]; sensor CT0, peptide 1 mg/mL): 10.92
- Sweet ([4]; sensor GL1, peptide 0.1 mg/mL): 8.49
- Sweet ([4]; sensor GL1, peptide 1 mg/mL): -5.32
- Average cell viability, HUVEC [5]: 104.47
- Cell viability, HUVEC, Data1 [5]: 106.25
- Cell viability, HUVEC, Data2 [5]: 114.32
- Cell viability, HUVEC, Data3 [5]: 92.84

Substance: TDPELV [TaPep60]
- Average cell viability, HPNE [1]: 111.81
- Cell viability, HPNE, Data1 [1]: 114.61
- Cell viability, HPNE, Data2 [1]: 113.81
- Cell viability, HPNE, Data3 [1]: 107.02
- Average cell viability, BEAS-2B [2]: 110.77
- Cell viability, BEAS-2B, Data1 [2]: 105.88
- Cell viability, BEAS-2B, Data2 [2]: 117.95
- Cell viability, BEAS-2B, Data3 [2]: 108.47
- Average cell viability, HEK293T [3]: 103.06
- Cell viability, HEK293T, Data1 [3]: 105.62
- Cell viability, HEK293T, Data2 [3]: 98.99
- Cell viability, HEK293T, Data3 [3]: 104.57
- Umami ([4]; peptide 0.1 mg/mL): 1.33
- Umami ([4]; peptide 1 mg/mL): -5.30
- Bitter ([4]; sensor C00, peptide 0.1 mg/mL): 7.64
- Bitter ([4]; sensor C00, peptide 1 mg/mL): 3.00
- Sour ([4]; sensor CA0, peptide 0.1 mg/mL): -2.65
- Sour ([4]; sensor CA0, peptide 1 mg/mL): 12.51
- Salty ([4]; sensor CT0, peptide 0.1 mg/mL): -20.71
- Salty ([4]; sensor CT0, peptide 1 mg/mL): 9.00
- Sweet ([4]; sensor GL1, peptide 0.1 mg/mL): 5.70
- Sweet ([4]; sensor GL1, peptide 1 mg/mL): -9.69
- Average cell viability, HUVEC [5]: 102.29
- Cell viability, HUVEC, Data1 [5]: 91.72
- Cell viability, HUVEC, Data2 [5]: 106.41
- Cell viability, HUVEC, Data3 [5]: 108.73

Substance: TIDDELR [TaPep26]
- Average cell viability, HPNE [1]: 94.58
- Cell viability, HPNE, Data1 [1]: 84.76
- Cell viability, HPNE, Data2 [1]: 94.94
- Cell viability, HPNE, Data3 [1]: 104.03
- Average cell viability, BEAS-2B [2]: 102.16
- Cell viability, BEAS-2B, Data1 [2]: 95.61
- Cell viability, BEAS-2B, Data2 [2]: 106.68
- Cell viability, BEAS-2B, Data3 [2]: 104.19
- Average cell viability, HEK293T [3]: 99.46
- Cell viability, HEK293T, Data1 [3]: 96.81
- Cell viability, HEK293T, Data2 [3]: 98.23
- Cell viability, HEK293T, Data3 [3]: 103.34
- Umami ([4]; peptide 0.1 mg/mL): 1.71
- Umami ([4]; peptide 1 mg/mL): -4.35
- Bitter ([4]; sensor C00, peptide 0.1 mg/mL): 7.26
- Bitter ([4]; sensor C00, peptide 1 mg/mL): 3.16
- Sour ([4]; sensor CA0, peptide 0.1 mg/mL): -3.53
- Sour ([4]; sensor CA0, peptide 1 mg/mL): 10.93
- Salty ([4]; sensor CT0, peptide 0.1 mg/mL): -21.44
- Salty ([4]; sensor CT0, peptide 1 mg/mL): 8.38
- Sweet ([4]; sensor GL1, peptide 0.1 mg/mL): 5.51
- Sweet ([4]; sensor GL1, peptide 1 mg/mL): -3.99
- Average cell viability, HUVEC [5]: 104.87
- Cell viability, HUVEC, Data1 [5]: 103.54
- Cell viability, HUVEC, Data2 [5]: 102.74
- Cell viability, HUVEC, Data3 [5]: 108.33
